# In patent US7595327B2, “Beta-sulfonamide hydroxamic acid inhibitors of tace/matrix metalloproteinase” (priority 2005, dated 2009):
# Read-outs that look alike come from different tables or passages of the source.
# Legend:
# [1] = biological target: T1, TACE (catalytic domain of the recombinant TACE protein) (Homo sapiens, UniProt P78536); experiment: TACE FRET assay using TACE Cat; format: biochemical; details: pro-TNF-α substrate peptide
# T1 construct: The catalytic domain of the recombinant TACE protein was expressed and purified; made in house
# Experimental: The procedure is essentially as described in Jin, G. et al., Analytical Biochemistry (2002) 302, 269-275, incorporated by reference herein in its entirety. […] K is the IC50. Generally, n and B are floated, noting that n (hill slope) should be close to 1 and B (background offset) to 0.
# Pro-TNF-α substrate peptide Abz-[…]-Dpa (AnaSpec, San Jose, Calif., WARC-1) was prepared as a 2 mM stock solution in the TACE assay buffer (50 mM Tris-HCI, pH 7.4, 25 mM NaCl, 4% Glycerol, 0.005% Brij 35). The catalytic domain of the recombinant TACE protein was expressed and purified. The TACE protein (1 ug/ml) was pretreated with the inhibitors at various concentrations for 10 min at room temperature. The reaction was initiated by the addition of the substrate peptide. The increase in fluorescence was monitored at an Excitation of 320 nm and an Emission of 420 nm over a period of 10 min. The initial rate (slope) of the reaction was determined using a fluorescence plate reader (Molecular Devices, Spectra Max Gemini XS).
# recombinant human MMP-2 = biological target: T2, recombinant human MMP-2 (Homo sapiens, UniProt P08253); experiment: In-vitro fluorescence assay of MMP-2 activity; format: biochemical
# T2 sequence (P08253 110-660): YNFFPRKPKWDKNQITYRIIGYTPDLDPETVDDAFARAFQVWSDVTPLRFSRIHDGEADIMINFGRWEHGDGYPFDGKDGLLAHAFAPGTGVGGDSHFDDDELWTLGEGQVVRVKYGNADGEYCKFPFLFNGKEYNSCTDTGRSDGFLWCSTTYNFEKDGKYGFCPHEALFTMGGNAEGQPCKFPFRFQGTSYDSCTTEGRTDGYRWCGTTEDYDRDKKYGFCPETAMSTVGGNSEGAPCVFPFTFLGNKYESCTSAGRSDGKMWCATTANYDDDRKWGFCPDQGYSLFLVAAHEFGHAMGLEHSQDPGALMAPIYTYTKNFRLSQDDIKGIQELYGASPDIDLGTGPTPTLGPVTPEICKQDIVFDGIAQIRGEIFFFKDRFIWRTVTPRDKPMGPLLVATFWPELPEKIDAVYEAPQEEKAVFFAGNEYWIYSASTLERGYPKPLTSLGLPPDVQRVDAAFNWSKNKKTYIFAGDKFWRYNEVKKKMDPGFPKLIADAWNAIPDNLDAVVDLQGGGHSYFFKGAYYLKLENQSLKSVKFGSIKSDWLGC
# MMP-13 = MMP-13 (Homo sapiens, UniProt P45452); experiment: In-vitro fluorescence assay of MMP-13 activity; format: biochemical
# Experimental: See Knight, C. […] […].
# The method was essentially the same as for the determination of MMP-1 activity, described above, except that the final concentration of purified MMP in the assay was 0.5 nM, prepared by diluting with the assay buffer.
# [2] = test system: TNF-α secretion in Raw 264.7 cells; experiment: Cell-based assay for inhibition of TNF-α secretion in Raw cells; details: Mus musculus, RAW264.7, LPS 100 ng/ml, 4 hr
# Experimental: The basic measurement of the assay is the percentage of inhibition of TNF-α secretion and the IC50 determination by a fitting with the model-39 of LSW data analysis tool. […] Cells are split twice a week by scraping and 1 to 10 or 20 dilutions. For testing compounds, cells are cultured to confluence and are seeded the day before the experiment in 24 well culture dishes at 0.5 to 1 million/ml well. On the next morning, the medium from the overnight culture is replaced with the fresh growth medium. The compounds are added at various concentration at the 0.2% of final DMSO concentrations (10 μl of a 20% DMSO solution containing testing compounds is added to each well). The cells are pre-incubated with compounds for 1 hr. LPS (Sigma, L2262) is added to cells at a final concentration of 100 ng/ml (10 μl of a […] LPS solution freshly diluted from a 1 mg/ml LPS stock solution in PBS is added to each well) and cells are further incubated for 4 hr at 37° C. 1 ml of the supernatant was collected, cells are spun down and the supernatants are frozen at −80° C. until use. The TNF-α and other proinflammatory cytokines were detected by an ELISA assay according to the manufacturer's instructions (Biosource International, Inc., Camarillo, Calif. (For IL-1b measurement in Raw cells, one round of freeze and thaw of the cells was required).
# [3] = test system: LPS-induced TNF-α secretion in human whole blood; experiment: Human whole blood assay for LPS-induced TNF-α secretion; format: cell-based; details: Homo sapiens, LPS 100 ng/ml, read-out: TNF Secretion HWB IC50
# Experimental: procedure is essentially as described in Newton, R. C., et al., (2001) Ann Rheum […]32, incorporated by reference herein in its entirety. The basic measurement of the assay is the percentage of inhibition of TNF-α secretion and the IC50 determination by a […] model-39 of LSW data analysis tool. 350 μl of fresh human blood drawn from healthy volunteers were pre-incubated with compounds for one hour at the various concentrations at 37° C. with turning generally, the final DMSO concentrations should be kept below 0.2%. At the end of cubation, LPS (Sigma, L2262) was added to the blood at 100 ng/ml and the samples were further incubated for 4 hours or overnight at 37° C. with constant rotation. At the end of the incubation period, 650 μl of serum-free medium was added to the blood samples and the samples were centrifuged at 1500 rpm for 15 minutes. 500 μl of supernate was collected and frozen at -80° C. The TNF-α and other proinflammatory cytokines were detected by ELISA assay according to the manufacturer's instruction (Biosource International, Inc., Camarillo, Calif.).
# T1 sequence (P78536 223-474 limits assumed): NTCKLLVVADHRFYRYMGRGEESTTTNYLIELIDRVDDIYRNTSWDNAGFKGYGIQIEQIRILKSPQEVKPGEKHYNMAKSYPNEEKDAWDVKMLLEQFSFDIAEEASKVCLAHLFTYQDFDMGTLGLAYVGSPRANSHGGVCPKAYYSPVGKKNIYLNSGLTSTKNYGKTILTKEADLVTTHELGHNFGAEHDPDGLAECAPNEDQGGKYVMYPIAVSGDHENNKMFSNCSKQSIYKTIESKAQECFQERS
"IC50 ([1]; FRET, read-out: TACE IC50)",IC50 (recombinant human MMP-2),IC50 (MMP-13),IC50 [2],IC50 [3],Compound,"IC50 ([1]; TACE IC50, FRET)"
0.0005 µM,> 16.7 µM,14.4 µM,0.46 µM,0.8 µM,"Cc1cc(COc2ccc(S(=O)(=O)N[C@@H]3CCN(C(=O)OC(C)(C)C)CC3C(=O)NO)cc2)c2ccccc2n1 (mixture of isomers) [Example 28, tert-Butyl (3S,4R)-3-[(hydroxyamino)carbonyl]-4-[({4-[(2-methylquinolin-4-yl)methoxy]phenyl}sulfonyl)amino]piperidine-1-carboxylate]",–
0.0022 µM,> 16.7 µM,> 16.7 µM,–,9.9 µM,"Cc1cc(COc2ccc(S(=O)(=O)N[C@H]3[C@@H](C(=O)NO)[C@@H]4CC[C@H]3O4)cc2)c2ccccc2n1 (relative stereo) [Example 2, exo-N-Hydroxy-3-[({4-[(2-methylquinolin-4-yl)methoxy]phenyl}sulfonyl)amino]-7-oxabicyclo[2.2.1]heptane-2-carboxamide]",–
0.001 µM,> 16.7 µM,> 16.7 µM,–,47 µM,"Cc1cc(COc2ccc(S(=O)(=O)N[C@@H]3[C@@H]4CC[C@@H](C4)[C@@H]3C(=O)NO)cc2)c2ccccc2n1 (relative stereo) [Example 6, endo-N-Hydroxy-3-[({4-[(2-methylquinolin-4-yl)methoxy]phenyl}sulfonyl)amino]bicyclo[2.2.1]heptane-2-carboxamide]",–
0.0015 µM,> 16.7 µM,> 16.7 µM,–,> 50 µM,"Cc1cc(COc2ccc(S(=O)(=O)N(C)[C@H]3[C@@H](C(=O)NO)[C@H]4C=C[C@@H]3C4)cc2)c2ccccc2n1 (relative stereo) [Example 8, endo-N-Hydroxy-3-[methyl({4-[(2-methylquinolin-4-yl)methoxy]phenyl}sulfonyl)amino]bicyclo[2.2.1]hept-5-ene-2-carboxamide]",–
0.0011 µM,> 16.7 µM,> 16.7 µM,–,4.2 µM,"Cc1cc(COc2ccc(S(=O)(=O)N[C@@H]3CC=CC[C@@H]3C(=O)NO)cc2)c2ccccc2n1 (relative stereo) [Example 10, cis-N-hydroxy-6-[({4-[(2-methylquinolin-4-yl)methoxy]phenyl}sulfonyl)amino]cyclohex-3-ene-1-carboxamide]",–
–,> 16.7 µM,> 16.7 µM,0.08 µM,2.2 µM,"Cc1cc(COc2ccc(S(=O)(=O)N[C@@H]3CCCC[C@@H]3C(=O)NO)cc2)c2ccccc2n1 (relative stereo) [Example 12, cis-N-hydroxy-2-[({4-[(2-methylquinolin-4-yl)methoxy]phenyl}sulfonyl)amino]cyclohexanecarboxamide]",–
–,> 16.7 µM,> 16.7 µM,0.09 µM,0.27 µM,"Cc1cc(COc2ccc(S(=O)(=O)N[C@@H]3CNC[C@@H]3C(=O)NO)cc2)c2ccccc2n1 (relative stereo) [Example 22, cis-N-Hydroxy4-[({4-[(2-methylquinolin-4-yl)methoxy]phenyl}sulfonyl)amino]pyrrolidine-3-carboxamide]",–
–,> 16.7 µM,> 16.7 µM,0.911 µM,43 µM,"Cc1cc(COc2ccc(S(=O)(=O)N(C)[C@H]3CCCC[C@@H]3C(=O)NO)cc2)c2ccccc2n1 (relative stereo) [Example 61, trans-N-hydroxy-2-[methyl({4-[(2-methylquinolin-4-yl)methoxy]phenyl}sulfonyl)amino]cyclohexanecarboxamide]",–

# Second part, the molecule before the results:
Compound,"IC50 ([1]; FRET, read-out: TACE IC50)",IC50 (recombinant human MMP-2),IC50 (MMP-13),IC50 [2],IC50 [3],"IC50 ([1]; TACE IC50, FRET)"
"Cc1cc(COc2ccc(S(=O)(=O)N[C@H]3[C@@H](C(=O)NO)[C@H]4C=C[C@@H]3C4)cc2)c2ccccc2n1 (relative stereo) [Example 7, endo-N-Hydroxy-3-[({4-[(2-methylquinolin-4-yl)methoxy]phenyl}sulfonyl)amino]bicyclo[2.2.1]hept-5-ene-2-carboxamide]",0.0012 µM,> 16.7 µM,> 16.7 µM,–,34 µM,–
"Cc1cc(COc2ccc(S(=O)(=O)N[C@H]3[C@@H](C(=O)NO)[C@@H]4C=C[C@H]3C4)cc2)c2ccccc2n1 (relative stereo) [Example 9, exo-N-Hydroxy-3-[({4-[(2-methylquinolin-4-yl)methoxy]phenyl}sulfonyl)amino]bicyclo[2.2.1] hept-5-ene-2-carboxamide]",0.0001 µM,> 16.7 µM,> 16.7 µM,–,9.3 µM,–
"CN(C1C2CCC(C2)C1C(=O)NO)S(=O)(=O)c1ccc(OCc2ccc3ccccc3c2)cc1 (stereo in doubt) [Example 39, (1R,2S,3R,4S)-N-hydroxy-3-(methyl{[4-(2-naphthylmethoxy)phenyl]sulfonyl}amino)bicyclo[2.2.1]heptane-2-carboxamide]",0.172 µM,–,–,–,–,–
"CN(C1C2CCC(C2)C1C(=O)NO)S(=O)(=O)c1ccc(OCc2ccc3nonc3c2)cc1 (stereo in doubt) [Example 40, (1R,2S,3R,4S)-3-[{[4-(2,1,3-benzoxadiazol-5-ylmethoxy)phenyl]sulfonyl}(methyl)amino]-N-hydroxybicyclo[2.2.1]heptane-2-carboxamide]",0.056 µM,–,–,–,–,–
"Cc1cc(COc2ccc(S(=O)(=O)NC3C(C(=O)NO)C4CCC3N4C(=O)OC(C)(C)C)cc2)c2ccccc2n1 (centres unmarked) [Example 37, tert-Butyl 2-[(hydroxyamino)carbonyl]-3-[({4-[(2-methylquinolin-4-yl)methoxy]phenyl}sulfonyl)amino]-7-azabicyclo[2.2.1]heptane-7-carboxylate]",–,> 16.7 µM,> 16.7 µM,–,59 µM,0.01 µM
"Cc1cc(COc2ccc(S(=O)(=O)NC3C4CCC(N4)C3C(=O)NO)cc2)c2ccccc2n1 (centres unmarked) [Example 38, 3-[4-(2-Methyl-quinolin-4-ylmethoxy)-benzenesulfonylamino]-7-aza-bicyclo[2.2.1]heptane-2-carboxylic acid hydroxyamide]",–,8.68 µM,> 16.7 µM,–,26 µM,0.051 µM
Cc1cc(COc2ccc(S(=O)(=O)N[C@@H]3CCC[C@]3(CO)C(=O)NO)cc2)c2ccccc2n1 [Example 58],–,–,–,0.44 µM,14 µM,–
